# Test results taken from patent US8247211B2, “Glycopeptide antibiotics” (American Cyanamid Company, priority 2001, dated 2012).
# Legend:
# [1] = test system: Enterococcus sp.; experiment: In vitro antibacterial evaluation: minimum inhibitory concentration (MIC), broth dilution method; format: cell-based; conditions: broth dilution, 5×10^5 CFU/mL, 18 hours at 35° C.
# In short: (§1)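 Inoculum: 5×10^5 CFU/mL. Range: 64-0.06 μg/mL. Medium: Muller-Hinton II […]; NCCLS M7-A2 broth dilution. Endpoint: lowest concentration inhibiting growth. Strains include methicillin-, penicillin- and/or vancomycin-resistant clinical isolates.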
# [2] = test system: Escherichia coli; experiment: as above; format: cell-based; conditions: 5×10^5 CFU/mL, 18 hours at 35° C.
# In short: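 MIC read as lowest drug level preventing visible growth. Organisms at 5×10^5 CFU/mL were exposed to a 64-0.06 μg/mL dilution series in Muller-Hinton II […] following NCCLS broth dilution standard M7-A2.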
# [3] = test system: Staphylococcus sp.; experiment: as above; format: cell-based; conditions: for MIC Staphylococcus aureus (ATCC 29213): strain ATCC 29213; for MIC Staphylococcus aureus (GC 1131): strain GC 1131; for MIC Staphylococcus aureus (GC 3051): strain GC 3051; for MIC Staphylococcus aureus (GC 3053): strain GC 3053; for MIC Staphylococcus aureus (GC 4541): strain GC 4541; for MIC Staphylococcus aureus (GC 4542): strain GC 4542; for MIC Staphylococcus aureus-SMITH (GC 4543): strain GC 4543; for MIC Staphylococcus aureus (GC 4544): strain GC 4544; for MIC Staphylococcus aureus (GC 4545): strain GC 4545; for MIC Staphylococcus haemolyticus (GC 4546): strain GC 4546; for MIC Coagulase Negative Staphylococcus (GC 4547): strain GC 4547; for MIC Coagulase Negative Staphylococcus (GC 4548): strain GC 4548; for MIC Coagulase Negative Staphylococcus (GC 4549): strain GC 4549; for MIC Coagulase Negative Staphylococcus (GC 4551): strain GC 4551; for MIC Coagulase Negative Staphylococcus (GC 6257): strain GC 6257
# In short: as §1
# [4] = test system: Streptococcus sp.; experiment: as above; format: cell-based; conditions: broth dilution, 5×10^5 CFU/mL, 18 hours at 35° C.
# In short: as §1
# [5] = test system: Staphylococcus aureus-SMITH (GC 4543); experiment: Acute lethal infection in mice (ED50); format: in vivo; conditions: female CD-1 mice, intraperitoneal challenge, intravenous dose 30 min. after infection, 7 day survival ratios
# In short: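 Female CD-1 mice (20 ± 1-2 g) were infected intraperitoneally with enough bacteria, suspended in Trypticase Soy Broth or hog gastric mucin, to kill untreated controls within 24-48 hr. Compound in saline or 5% dextrose was given intravenously 30 min after infection. ED50 came from pooled 7-day survival over 3 tests.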
# [6] = broth dilution, 18 hours at 35° C.
smiles,measurement,setting,value
CC(c1ccccc1)C1NC(=O)CNC(=O)C(CO)NC(=O)C(C(O)C2CNC(=N)N2C2OC(CO)C(O)C(O)C2O)NC(=O)C(C(O)C2CNC(=N)N2)NC(=O)C(Cc2ccc(OC3OC(CO)C(OC4OC5COC(CC6CCN(C(=O)OCc7ccccc7)CC6)OC5C(O)C4O)C(O)C3O)cc2)NC1=O (stereo not drawn) [Example 113],MIC Enterococccus avium (GC 4558),[1],2 µg/mL
same,MIC Enterococccus faecalis (ATCC 29212),[1],2 µg/mL
same,MIC Enterococccus faecalis (GC 2691),[1],4 µg/mL
same,MIC Enterococccus faecalis (GC 3059),[1],2 µg/mL
same,MIC Enterococccus faecalis (GC 4552),[1],2 µg/mL
same,MIC Enterococccus faecalis (GC 4553),[1],2 µg/mL
same,MIC Enterococccus faecalis (GC 4554),[1],2 µg/mL
same,MIC Enterococccus faecalis (GC 6189),[1],2 µg/mL
same,MIC Enterococccus faecium (GC 2243),[1],2 µg/mL
same,MIC Enterococccus faecium (GC 4556),[1],2 µg/mL
same,MIC Enterococccus faecium (GC 4557),[1],2 µg/mL
same,MIC Enterococcus faecalis (GC 2242),[1],4 µg/mL
same,MIC Escherichia coli (ATCC 25922),[2],32 µg/mL
same,MIC Escherichia coli (GC 4559),[2],32 µg/mL
same,MIC Escherichia coli (GC 4560),[2],1 µg/mL
same,MIC Staphylococcus aureus (ATCC 29213),[3],1 µg/mL
same,MIC Staphylococcus aureus (ATCC 29213),[3]; [6],1 µg/mL
same,MIC Staphylococcus aureus (GC 1131),[3],2 µg/mL
same,MIC Staphylococcus aureus (GC 1131),[3]; [6],2 µg/mL
same,MIC Staphylococcus aureus (GC 3051),[3],1 µg/mL
same,MIC Staphylococcus aureus (GC 3051),[3]; [6],1 µg/mL
same,MIC Staphylococcus aureus (GC 3053),[3],1 µg/mL
same,MIC Staphylococcus aureus (GC 3053),[3]; [6],1 µg/mL
same,MIC Staphylococcus aureus (GC 4541),[3],1 µg/mL
same,MIC Staphylococcus aureus (GC 4541),[3]; [6],1 µg/mL
same,MIC Staphylococcus aureus (GC 4542),[3],1 µg/mL
same,MIC Staphylococcus aureus (GC 4542),[3]; [6],1 µg/mL
same,MIC Staphylococcus aureus-SMITH (GC 4543),[3]; 18 hours at 35° C.,1 µg/mL
same,MIC Staphylococcus aureus-SMITH (GC 4543),[3]; [6],1 µg/mL
same,MIC Staphylococcus aureus (GC 4544),[3],2 µg/mL
same,MIC Staphylococcus aureus (GC 4544),[3]; [6],2 µg/mL
same,MIC Staphylococcus aureus (GC 4545),[3],1 µg/mL
same,MIC Staphylococcus aureus (GC 4545),[3]; [6],1 µg/mL
same,MIC Staphylococcus haemolyticus (GC 4546),[3],1 µg/mL
same,MIC Staphylococcus haemolyticus (GC 4546),[3]; [6],1 µg/mL
same,MIC Coagulase Negative Staphylococcus (GC 4547),[3],1 µg/mL
same,MIC Coagulase Negative Staphylococcus (GC 4547),[3]; [6],1 µg/mL
same,MIC Coagulase Negative Staphylococcus (GC 4548),[3],0.5 µg/mL
same,MIC Coagulase Negative Staphylococcus (GC 4548),[3]; [6],0.5 µg/mL
same,MIC Coagulase Negative Staphylococcus (GC 4549),[3],1 µg/mL
same,MIC Coagulase Negative Staphylococcus (GC 4549),[3]; [6],1 µg/mL
same,MIC Coagulase Negative Staphylococcus (GC 4551),[3],1 µg/mL
same,MIC Coagulase Negative Staphylococcus (GC 4551),[3]; [6],1 µg/mL
same,MIC Coagulase Negative Staphylococcus (GC 6257),[3],0.5 µg/mL
same,MIC Coagulase Negative Staphylococcus (GC 6257),[3]; [6],0.5 µg/mL
same,MIC Streptococcus agalactiae (GC 4564),[4],0.12 µg/mL
same,MIC Streptococcus pneumoniae (GC 1894),[4],<0.06 µg/mL
same,MIC Streptococcus pneumoniae (GC 4565),[4],<0.06 µg/mL
same,MIC Streptococcus pneumonine (ATCC 6301),[4],<0.06 µg/mL
same,MIC Streptococcus pyogenes (GC 4563),[4],<0.06 µg/mL
same,"median effective dose (ED50), Staphylococcus aureus-SMITH (GC 4543)",[5],0.26 mg/kg
